{
  "source": "patent US20100280975A1",
  "about": "“SYSTEMS FOR CLINICAL TRIALS” (WisTa Laboratories Ltd., priority 2007, published 2010)",
  "origin": "cited, not measured here",
  "settings": "placebo arm improved 3.2 units from baseline ADAS-cog; cited from earlier work",
  "data": [
    {"smiles": "COCCOC(=O)C1=C(C)NC(C)=C(C(=O)OC(C)C)C1c1cccc(C#N)c1Cl", "note": "(stereo not shown) [MEM-1003]", "values": [
      {"measurement": "efficacy in clinical trial", "result": "failed to demonstrate efficacy"}
    ]}
  ]
}
